According to patent publication US20240366661A1, “COMPOSITIONS FOR AND METHODS OF TREATING A SUBJECT HAVING INFLAMMATION” (The George Washington University, priority 2022, published 2024):
“Also recorded” adds a separate entry of the source.

Key:
[1] = tested on: murine bone marrow derived macrophages (BMDMs); experiment: QRT-PCR of M2 markers in bone marrow derived macrophages pre-treated with HDAC11 inhibitor and polarized to M2; type: cell-based; settings: inhibitor 5 μM pre-treatment overnight prior to M2 polarization
Method: (§1) Upon treatment with M-CSF, bone marrow-derived monocytes (BMDM) differentiate into naïve (M0) macrophages. In the case of peritoneal exudate macrophages (PEMs), naïve M0 macrophages are isolated from the peritoneal cavity. These M0 macrophages are pre-treated with HDAC11 inhibitor followed by polarization to M2 macrophages with IL4 and IL13 cytokines or other cytokine mix including but not limited to IL10 and TGF beta.
Next, HDAC11 inhibitors were evaluated for their ability to modulate the function of macrophages. […] These commercially available HDAC11 inhibitors were tested on macrophages in-vitro to identify their macrophage modulatory properties. Next, BMDMs were isolated and polarized towards M2 phenotype with HDAC11 inhibitor pre-treatment overnight.

[2] = target: T1, HDAC11 (Homo sapiens, UniProt Q96DB2); settings: literature statement; cited from earlier work
T1 sequence (Q96DB2 1-347): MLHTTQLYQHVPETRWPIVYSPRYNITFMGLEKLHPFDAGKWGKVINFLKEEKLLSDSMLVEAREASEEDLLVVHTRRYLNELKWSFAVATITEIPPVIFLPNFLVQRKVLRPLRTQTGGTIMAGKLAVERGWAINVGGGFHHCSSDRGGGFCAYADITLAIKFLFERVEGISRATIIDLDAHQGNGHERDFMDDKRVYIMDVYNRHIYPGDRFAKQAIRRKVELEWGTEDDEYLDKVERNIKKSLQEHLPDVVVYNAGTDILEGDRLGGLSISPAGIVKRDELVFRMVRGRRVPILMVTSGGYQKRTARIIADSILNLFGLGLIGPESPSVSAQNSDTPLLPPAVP

[3] = tested on: peritoneal exudated macrophages (PEMs); experiment: ELISA of IL-10 and TGFβ cytokines in peritoneal exudate macrophages treated with HDAC11 inhibitor; type: cell-based; settings: dose-dependent
Description: as §1, with “beta. […] A chromatin immunoprecipitation assay further confirmed that HDAC11 binded preferentially to the distal promoter region of IL10, and negatively regulated its gene expression (FIG. 1B). […] This confirmed that the HDAC11 inhibitor was highly specific, and that it could recapitulate the effect of HDAC11 genetic knock down.” for “beta.”
Therefore, HDAC11 inhibitor treated M2 macrophages as a cell therapy and or topical HDAC11 inhibitor application are excellent to treat inflammatory diseases.

Structure (SMILES)	Arg1 expression [1]	Fizz1 expression [1]	Mrc1 expression [1]	inhibition of HDAC11 (demyristoylation activity; potency and selectivity) [2]	expression of IL-10 cytokine [3]	expression of TGFβ cytokine [3]
CC1(C)c2cccc(C(=O)NO)c2CN1c1cnc(C(F)(F)F)cn1 [FT895]	did not affect	further enhanced the expression of Fizz1	did not affect			
CCCCCCCCCCCCCCCCNNC(=O)c1cccs1 [SIS17]	increased the expression of Arg1 and Mrc1	further enhanced the expression of Fizz1	increased the expression of Arg1 and Mrc1	inhibit the demyristoylation activity of HDAC11 without inhibiting other HDACs		
COc1ccccc1NC(=O)NCc1ccc(C(=O)NO)cc1 [elevenostat]					increased the expression of IL-10 and TGFβ cytokines in a dose-dependent manner; also recorded: dose dependent increase	increased the expression of IL-10 and TGFβ cytokines in a dose-dependent manner; also recorded: dose dependent increase
